22 compounds from patent US20230024302A1, “2,3,5-TRISUBSTITUTED PYRAZOLO[1,5-A]PYRIMIDINE COMPOUNDS” (Arcus Biosciences, Inc., priority 2019, published 2023) can be followed below.

Structures are written as SMILES. A value given as a limit tells only on which side of the number the result lay.

For assay [1], the target named is T1, PI3Kγ (Homo sapiens, UniProt P48736).
T1 construct: host or cells: THP-1
The assay is described as follows: PI3Kγ cellular assay in THP-1 cells (AKT pS473 AlphaLISA). The note with it: Table 1, rhMCP-1 stimulated AKT pS473, read-out: cellular potency (PI3Kγ IC50). The format is cell-based. An outline of the steps:
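Endogenous AKT S473 phosphorylation, detected by AlphaLISA in lysates, serves as the PI3Kγ activity read-out in stimulated, serum-starved THP-1 cells (1.8×10^5/well).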
(Alpha assays give light when donor and acceptor beads are brought close together.)

Assay [2] concerns the target T2, PI3Kγ (p120γ) (Homo sapiens, UniProt P48736).
T2 construct: purchased Promega V1761
The assay is described as follows: Inhibition of PI3K kinase activity (ADP Glo), PI3Kγ. As to conditions: Table 1, p120γ, read-out: biochemical potency (PI3Kγ IC50). An outline of the steps: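 IC50 values come from a 4-parameter nonlinear fit of ADP-Glo luminescence, which measures ADP produced as PIP2 is phosphorylated to PIP3. The p120γ enzyme (2× stock 8 nM) sat with compound 1 h at rt before substrate (2× stocks: 50 μM ATP, 0.1 mg/ml PIP2) was added. Phosphorylation then proceeded 60 min at rt.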
(In ADP-Glo the light output rises with the ADP produced.)

A word on the IC50: it is the midpoint of a concentration-inhibition curve.

T1 sequence (P48736 whole entry): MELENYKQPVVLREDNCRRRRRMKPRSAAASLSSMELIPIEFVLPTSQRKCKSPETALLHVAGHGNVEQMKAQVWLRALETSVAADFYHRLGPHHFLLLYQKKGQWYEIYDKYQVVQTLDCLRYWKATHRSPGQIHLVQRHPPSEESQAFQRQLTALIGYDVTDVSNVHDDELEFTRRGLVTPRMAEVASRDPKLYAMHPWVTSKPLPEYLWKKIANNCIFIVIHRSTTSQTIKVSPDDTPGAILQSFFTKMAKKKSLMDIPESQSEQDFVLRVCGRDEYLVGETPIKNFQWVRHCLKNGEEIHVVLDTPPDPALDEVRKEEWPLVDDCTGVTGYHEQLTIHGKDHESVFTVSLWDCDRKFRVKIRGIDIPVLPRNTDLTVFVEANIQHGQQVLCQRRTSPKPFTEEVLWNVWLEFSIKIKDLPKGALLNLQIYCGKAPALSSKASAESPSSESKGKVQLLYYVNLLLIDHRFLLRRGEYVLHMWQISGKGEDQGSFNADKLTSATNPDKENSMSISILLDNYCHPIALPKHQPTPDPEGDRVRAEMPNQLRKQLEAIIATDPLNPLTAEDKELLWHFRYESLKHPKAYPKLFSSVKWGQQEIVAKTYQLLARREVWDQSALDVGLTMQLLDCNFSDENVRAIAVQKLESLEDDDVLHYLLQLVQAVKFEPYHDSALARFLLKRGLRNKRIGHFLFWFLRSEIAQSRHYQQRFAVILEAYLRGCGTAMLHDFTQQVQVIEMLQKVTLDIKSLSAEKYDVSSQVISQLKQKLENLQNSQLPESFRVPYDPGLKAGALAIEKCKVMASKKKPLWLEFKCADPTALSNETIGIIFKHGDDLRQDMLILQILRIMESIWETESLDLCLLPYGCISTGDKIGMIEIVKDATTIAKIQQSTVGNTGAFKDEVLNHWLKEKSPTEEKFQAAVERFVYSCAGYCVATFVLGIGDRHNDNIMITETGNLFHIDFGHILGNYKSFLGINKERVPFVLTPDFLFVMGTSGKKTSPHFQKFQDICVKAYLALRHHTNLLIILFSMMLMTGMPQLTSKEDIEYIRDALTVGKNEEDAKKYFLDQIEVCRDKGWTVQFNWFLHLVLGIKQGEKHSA
T2 sequence (P48736 whole entry): as above

For `C[C@@H](C1CC1)N1Cc2cc(-c3ccn4nc(N)c(C(=O)N[C@H]5CC[C@@](C)(O)CC5)c4n3)cc(C(F)(F)F)c2C1=O` [Example 54, 2-[(S)-1-Cyclopropylethyl]-5-{2-amino-3-[(cis-4-hydroxy-4-methylcyclohexylamino)carbonyl]-1,4,7a-triaza-5-indenyl}-7-(trifluoromethyl)-1-isoindolinone], the IC50 in assay [1] and in assay [2] was less than 100 nM each time.

Consider `C[C@@H](C1CC1)N1Cc2cc(-c3ccn4nc(N)c(C(=O)N[C@H]5CC[C@](O)(C(F)(F)F)CC5)c4n3)cc(C(F)(F)F)c2C1=O` [Example 55, 2-[(S)-1-Cyclopropylethyl]-5-(2-amino-3-{[cis-4-hydroxy-4-(trifluoromethyl)cyclohexylamino]carbonyl}-1,4,7a-triaza-5-indenyl)-7-(trifluoromethyl)-1-isoindolinone], for which the IC50 in assay [1] and in assay [2] was less than 100 nM each time.

As to `C[C@@H](C1CC1)N1Cc2cc(-c3ccn4nc(N)c(C(=O)NC5(C)COC5)c4n3)cc(C(F)(F)F)c2C1=O` [Example 56, 2-[(S)-1-Cyclopropylethyl]-5-{2-amino-3-[(3-methyl-3-oxetanylamino)carbonyl]-1,4,7a-triaza-5-indenyl}-7-(trifluoromethyl)-1-isoindolinone], the IC50 in assay [1] and in assay [2] was less than 100 nM throughout.

Regarding `C[C@H](CCO)NC(=O)c1c(N)nn2ccc(-c3cc4c(c(C(F)(F)F)c3)C(=O)N([C@@H](C)C3CC3)C4)nc12` [Example 57, 5-(3-{[(R)-3-Hydroxy-1-methylpropylamino]carbonyl}-2-amino-1,4,7a-triaza-5-indenyl)-2-[(S)-1-cyclopropylethyl]-7-(trifluoromethyl)-1-isoindolinone], the IC50 in assay [1] and in assay [2] was less than 100 nM each time.

On to `C[C@@H](C1CC1)N1Cc2cc(-c3ccn4nc(N)c(C(=O)NCCCCO)c4n3)cc(C(F)(F)F)c2C1=O` [Example 58, 2-[(S)-1-Cyclopropylethyl]-5-{2-amino-3-[(4-hydroxybutylamino)carbonyl]-1,4,7a-triaza-5-indenyl}-7-(trifluoromethyl)-1-isoindolinone], for which the IC50 in assay [1] and in assay [2] was less than 100 nM each time.

For the compound `C[C@@H](C1CC1)N1Cc2cc(-c3ccn4nc(N)c(C(=O)NCCC(C)(C)O)c4n3)cc(C(F)(F)F)c2C1=O` [Example 59, 2-[(S)-1-Cyclopropylethyl]-5-{2-amino-3-[(3-hydroxy-3-methylbutylamino)carbonyl]-1,4,7a-triaza-5-indenyl}-7-(trifluoromethyl)-1-isoindolinone], the IC50 in assay [1] and in assay [2] was less than 100 nM each time.

Consider `C[C@@H](C1CC1)N1Cc2cc(-c3ccn4nc(N)c(C(=O)N[C@H]5CC[C@H](CO)CC5)c4n3)cc(C(F)(F)F)c2C1=O` [Example 60, 2-Amino-5-(2-((S)-1-cyclopropylethyl)-1-oxo-7-(trifluoromethyl)isoindolin-5-yl)-N-(trans-4-(hydroxymethyl)cyclohexyl)pyrazolo[1,5-a]pyrimidine-3-carboxamide], for which the IC50 in assay [1] and in assay [2] was less than 100 nM each time.

For the compound `C[C@@H](C1CC1)N1Cc2cc(-c3ccn4nc(N)c(C(=O)N[C@H]5CC[C@H](C(C)(C)O)CC5)c4n3)cc(C(F)(F)F)c2C1=O` [Example 61, 2-Amino-5-(2-((S)-1-cyclopropylethyl)-1-oxo-7-(trifluoromethyl)isoindolin-5-yl)-N-(trans-4-(2-hydroxypropan-2-yl)cyclohexyl)pyrazolo[1,5-a]pyrimidine-3-carboxamide], the IC50 in assay [1] and in assay [2] was less than 100 nM each time.

As for `C[C@@H](C1CC1)N1Cc2cc(-c3ccn4nc(N)c(C(=O)N[C@H]5CC[C@H](C6(O)CC6)CC5)c4n3)cc(C(F)(F)F)c2C1=O` [Example 62, 2-Amino-5-(2-((S)-1-cyclopropylethyl)-1-oxo-7-(trifluoromethyl)isoindolin-5-yl)-N-(trans-4-(1-hydroxycyclopropyl)cyclohexyl)pyrazolo[1,5-a]pyrimidine-3-carboxamide], the IC50 in assay [1] and in assay [2] was less than 100 nM each time.

For `C[C@@H](C1CC1)N1Cc2cc(-c3ccn4nc(N)c(C(=O)N[C@H]5CCC[C@@H](O)C5)c4n3)cc(C(F)(F)F)c2C1=O` [Example 63, 2-Amino-5-{2-[(1S)-1-cyclopropylethyl]-1-oxo-7-(trifluoromethyl)-2,3-dihydro-1H-isoindol-5-yl}-N-[(1S,3R)-3-hydroxycyclohexyl]pyrazolo[1,5-a]pyrimidine-3-carboxamide], the IC50 in assay [1] and in assay [2] was less than 100 nM each time.

Take `C[C@@H](C1CC1)N1Cc2cc(-c3ccn4nc(N)c(C(=O)N[C@H]5CNC(=O)C5)c4n3)cc(C(F)(F)F)c2C1=O` [Example 64, 2-Amino-5-{2-[(1S)-1-cyclopropylethyl]-1-oxo-7-(trifluoromethyl)-2,3-dihydro-1H-isoindol-5-yl}-N-[(3R)-5-oxopyrrolidin-3-yl]pyrazolo[1,5-a]pyrimidine-3-carboxamide]: the IC50 in assay [1] and in assay [2] was less than 100 nM in each case.

With `C[C@@H](C1CC1)N1Cc2cc(-c3ccn4nc(N)c(C(=O)N[C@H]5C[C@H](O)C5)c4n3)cc(C(F)(F)F)c2C1=O` [Example 65, 2-Amino-5-{2-[(1S)-1-cyclopropylethyl]-1-oxo-7-(trifluoromethyl)-2,3-dihydro-1H-isoindol-5-yl}-N-[trans-3-hydroxycyclobutyl]pyrazolo[1,5-a]pyrimidine-3-carboxamide], the IC50 in assay [1] and in assay [2] was less than 100 nM each time.

As to `C[C@@H](C1CC1)N1Cc2cc(-c3ccn4nc(N)c(C(N)=O)c4n3)cc(C(F)(F)F)c2C1=O` [Example 66], the IC50 in assay [1] is 100 to 1000 nM; in assay [2] it was less than 100 nM.

As to `CNC(=O)c1c(N)nn2ccc(-c3cc4c(c(C(F)(F)F)c3)C(=O)N([C@@H](C)C3CC3)C4)nc12` [Example 67, 2-[(S)-1-Cyclopropylethyl]-5-[2-amino-3-(methylamino)carbonyl-1,4,7a-triaza-5-indenyl]-7-(trifluoromethyl)-1-isoindolinone], the IC50 in assay [1] and in assay [2] was less than 100 nM in each case.

Regarding `CCNC(=O)c1c(N)nn2ccc(-c3cc4c(c(C(F)(F)F)c3)C(=O)N([C@@H](C)C3CC3)C4)nc12` [Example 68, 2-[(S)-1-Cyclopropylethyl]-5-[2-amino-3-(ethylamino)carbonyl-1,4,7a-triaza-5-indenyl]-7-(trifluoromethyl)-1-isoindolinone], the IC50 in assay [1] and in assay [2] was less than 100 nM throughout.

For the compound `C[C@@H](C1CC1)N1Cc2cc(-c3ccn4nc(N)c(C(=O)Nc5ccncc5)c4n3)cc(C(F)(F)F)c2C1=O` [Example 69, (S)-2-Amino-5-(2-(1-cyclopropylethyl)-1-oxo-7-(trifluoromethyl)isoindolin-5-yl)-N-(pyridin-4-yl)pyrazolo[1,5-a]pyrimidine-3-carboxamide], the IC50 in assay [1] and in assay [2] was less than 100 nM throughout.

As to `C[C@@H](C1CC1)N1Cc2cc(-c3ccn4nc(N)c(C(=O)Nc5cccnc5)c4n3)cc(C(F)(F)F)c2C1=O` [Example 70, (S)-2-Amino-5-(2-(1-cyclopropylethyl)-1-oxo-7-(trifluoromethyl)isoindolin-5-yl)-N-(pyridin-3-yl)pyrazolo[1,5-a]pyrimidine-3-carboxamide], the IC50 in assay [1] and in assay [2] was less than 100 nM throughout.

For the compound `C[C@@H](C1CC1)N1Cc2cc3cc(c2C1=O)OCCOCCNC(=O)c1c(N)nn2ccc-3nc12` [Example 71, 6-[(S)-1-Cyclopropylethyl]-19-amino-10.13-dioxa-6.16.20.21.24-pentaazapentacyclo[16.5.2.12,9.04,8.021,25]hexacosa-1(24),2,4(8),9(26),18(25),19,22-heptaene-7,17-dione], the IC50 in assay [1] and in assay [2] was less than 100 nM in each case.

As for `C[C@@H](C1CC1)N1Cc2cc(-c3ccn4nc(N)c(C(=O)N[C@@H]5CCC[C@H]5O)c4n3)cc(NS(C)(=O)=O)c2C1=O` [Example 72, 2-Amino-5-{2-[(1S)-1-cyclopropylethyl]-7-methanesulfonamido-1-oxo-2,3-dihydro-1H-isoindol-5-yl}-N-[(1R,2R)-2-hydroxycyclopentyl]pyrazolo[1,5-a]pyrimidine-3-carboxamide], the IC50 in assay [1] and in assay [2] was less than 100 nM throughout.

On to `CNC(=O)c1c(N)nn2ccc(-c3cc4c(c(NS(C)(=O)=O)c3)C(=O)N([C@@H](C)C3CC3)C4)nc12` [Example 73, 2-Amino-5-{2-[(1S)-1-cyclopropylethyl]-7-methanesulfonamido-1-oxo-2,3-dihydro-1H-isoindol-5-yl}-N-methylpyrazolo[1,5-a]pyrimidine-3-carboxamide], for which the IC50 in assay [1] and in assay [2] was less than 100 nM in each case.

In the case of `CCNC(=O)c1c(N)nn2ccc(-c3cc4c(c(NS(C)(=O)=O)c3)C(=O)N([C@@H](C)C3CC3)C4)nc12` [Example 74, 2-Amino-5-{2-[(1S)-1-cyclopropylethyl]-7-methanesulfonamido-1-oxo-2,3-dihydro-1H-isoindol-5-yl}-N-ethylpyrazolo[1,5-a]pyrimidine-3-carboxamide], the 50% inhibitory concentration (IC50) in assay [1] and in assay [2] was less than 100 nM in each case.

Turning to `CC(C)NC(=O)c1c(N)nn2ccc(-c3cc4c(c(NS(C)(=O)=O)c3)C(=O)N([C@@H](C)C3CC3)C4)nc12` [Example 75, 2-Amino-5-{2-[(1S)-1-cyclopropylethyl]-7-methanesulfonamido-1-oxo-2,3-dihydro-1H-isoindol-5-yl}-N-(propan-2-yl)pyrazolo[1,5-a]pyrimidine-3-carboxamide], the IC50 in assay [1] and in assay [2] was less than 100 nM in each case.
